{
  "source": "patent US4981695A",
  "about": "“Composition comprising L-dopa” (priority 1986, dated 1991)",
  "origin": "cited, not measured here",
  "key": {"[1]": {"settings": "background"}, "[2]": {"system": "Parkinsons disease", "settings": "particularly tremor; background"}},
  "data": [
    {"smiles": "N[C@@H](Cc1ccc(O)c(O)c1)C(=O)O", "note": "[L-dopa, L-3,4-dihydroxyphenylalanine]", "values": [
      {"measurement": "decomposition by carboxylic elimination", "setting": "[1]", "result": "rapidly decomposed by carboxylic elimination"},
      {"measurement": "resorption (absorption window)", "setting": "[1]; gastro-intestinal tract", "result": "resorbed over a restricted part of the gastro-intestinal tract"},
      {"measurement": "inhibition of symptoms of the Parkinsons disease", "setting": "[2]", "result": "active at the inhibition of symptoms of the Parkinsons disease"}
    ]},
    {"smiles": "NC(CO)C(=O)NNCc1ccc(O)c(O)c1O", "note": "(centres unmarked) [benserazide]", "values": [
      {"measurement": "L-dopa dose on adding a decarboxylase inhibitor", "setting": "[1]", "result": "considerably reduced"}
    ]},
    {"smiles": "C[C@@](Cc1ccc(O)c(O)c1)(NN)C(=O)O", "note": "[carbidopa]", "values": [
      {"measurement": "L-dopa dose on adding a decarboxylase inhibitor", "setting": "[1]", "result": "considerably reduced"}
    ]}
  ]
}
